Read-outs that look alike come from different tables or passages of the source.
Assays:
Assay in all cases: biochemical
Assay type in all cases: binding
[1] = molecular target: T1, receptors in rat forebrain (mainly α4β2) (Rattus norvegicus, UniProt P09483+P12390)
T1 construct: from tissue; host or cells: rat forebrain homogenate
Text: (§1) In order to assess the steric and hydropathic effects of the C-5 substituents of the pyridine on the binding affinity and subtype-selectivity at neuronal nicotinic acetylcholine receptors. […] The binding affinity ratios for a ligand, calculated from its affinities at an α subunit paired with either the β2 osubunit or the β4 subunit, represents a measure of the selectivity of that ligand with regard to the β subunits.
In Vitro Inhibition of ^3H-Epibatidin Binding
The high affinity binding site for ^3H-epibatidin is most certainly binding to the α4β2 subtype of nicotinic receptors. The identity of the low affinity site is still believed to be unknown.
Tissue preparation: Preparations may be performed at 0-4° C. unless otherwise indicated. […] The tissue suspension may then be centrifuged at 27,000×g for 10 min. The supernatant is then discarded and the pellet may then be washed three times by centrifugation at 27,000×g for 10 min in 20 mL fresh buffer, and the final pellet may be resuspended in fresh buffer (400 mL per g of original tissue) and used for binding assays.
Assay: Aliquots of 2.0 mL homogenate may be added to 0.100 mL of test solution and 0.100 mL of ^3H-epibatidin (0.3 nM, final concentration), mixed and incubated for 60 min at room temperature. […] The amount of radioactivity on the filters may be determined by conventional liquid scintillation counting. Specific binding is total binding minus non-specific binding.

[2] = molecular target: T2, α3β4 nAChR subtype (Rattus norvegicus, UniProt P04757+P12392)
T2 construct: expressed in transfected cells
T2 sequence (P04757 26-499): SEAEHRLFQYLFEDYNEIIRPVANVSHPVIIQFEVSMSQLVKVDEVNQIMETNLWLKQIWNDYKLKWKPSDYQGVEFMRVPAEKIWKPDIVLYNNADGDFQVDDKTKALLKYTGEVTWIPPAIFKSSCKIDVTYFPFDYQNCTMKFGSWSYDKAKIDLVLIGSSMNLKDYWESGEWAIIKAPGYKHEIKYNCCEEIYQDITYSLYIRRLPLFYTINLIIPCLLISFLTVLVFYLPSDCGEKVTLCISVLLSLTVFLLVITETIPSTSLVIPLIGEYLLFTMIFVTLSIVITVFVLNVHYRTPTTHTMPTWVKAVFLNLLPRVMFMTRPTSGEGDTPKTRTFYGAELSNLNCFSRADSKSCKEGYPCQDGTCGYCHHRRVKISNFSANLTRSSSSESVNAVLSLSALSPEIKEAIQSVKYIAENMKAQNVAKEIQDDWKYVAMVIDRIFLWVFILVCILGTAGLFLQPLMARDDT
T2 sequence (P12392 21-495): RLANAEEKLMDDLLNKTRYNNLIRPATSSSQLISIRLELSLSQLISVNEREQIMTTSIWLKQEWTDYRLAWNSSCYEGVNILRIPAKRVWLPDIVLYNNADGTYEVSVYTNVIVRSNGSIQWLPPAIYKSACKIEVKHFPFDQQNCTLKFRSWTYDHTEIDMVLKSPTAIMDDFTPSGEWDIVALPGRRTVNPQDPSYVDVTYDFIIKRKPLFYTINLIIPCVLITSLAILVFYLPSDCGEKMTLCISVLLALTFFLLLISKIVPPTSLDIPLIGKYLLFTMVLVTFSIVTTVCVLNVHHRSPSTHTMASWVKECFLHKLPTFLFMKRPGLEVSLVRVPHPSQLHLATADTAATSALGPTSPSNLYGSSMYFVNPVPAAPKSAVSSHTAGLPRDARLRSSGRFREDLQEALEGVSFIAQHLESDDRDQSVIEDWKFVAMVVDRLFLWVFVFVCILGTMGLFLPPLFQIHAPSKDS
Text: as §1

[3] = molecular target: T3, α4β2 nAChR subtype (Rattus norvegicus, UniProt P09483+P12390)
T3 construct: expressed in transfected cells
T3 sequence (P12390 25-500): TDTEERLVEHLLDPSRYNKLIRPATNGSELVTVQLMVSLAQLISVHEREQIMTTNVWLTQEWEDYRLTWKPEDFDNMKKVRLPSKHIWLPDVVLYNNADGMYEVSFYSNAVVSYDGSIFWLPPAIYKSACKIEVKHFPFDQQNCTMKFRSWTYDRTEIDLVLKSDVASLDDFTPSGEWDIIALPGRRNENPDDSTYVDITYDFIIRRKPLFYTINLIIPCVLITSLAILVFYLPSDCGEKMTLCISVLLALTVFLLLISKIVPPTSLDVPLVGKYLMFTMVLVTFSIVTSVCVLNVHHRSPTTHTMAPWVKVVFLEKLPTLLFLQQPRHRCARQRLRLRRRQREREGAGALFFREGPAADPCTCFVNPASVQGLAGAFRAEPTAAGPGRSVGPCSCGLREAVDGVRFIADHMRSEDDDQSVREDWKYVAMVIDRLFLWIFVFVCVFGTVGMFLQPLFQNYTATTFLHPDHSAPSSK
T3 sequence (P09483 31-630): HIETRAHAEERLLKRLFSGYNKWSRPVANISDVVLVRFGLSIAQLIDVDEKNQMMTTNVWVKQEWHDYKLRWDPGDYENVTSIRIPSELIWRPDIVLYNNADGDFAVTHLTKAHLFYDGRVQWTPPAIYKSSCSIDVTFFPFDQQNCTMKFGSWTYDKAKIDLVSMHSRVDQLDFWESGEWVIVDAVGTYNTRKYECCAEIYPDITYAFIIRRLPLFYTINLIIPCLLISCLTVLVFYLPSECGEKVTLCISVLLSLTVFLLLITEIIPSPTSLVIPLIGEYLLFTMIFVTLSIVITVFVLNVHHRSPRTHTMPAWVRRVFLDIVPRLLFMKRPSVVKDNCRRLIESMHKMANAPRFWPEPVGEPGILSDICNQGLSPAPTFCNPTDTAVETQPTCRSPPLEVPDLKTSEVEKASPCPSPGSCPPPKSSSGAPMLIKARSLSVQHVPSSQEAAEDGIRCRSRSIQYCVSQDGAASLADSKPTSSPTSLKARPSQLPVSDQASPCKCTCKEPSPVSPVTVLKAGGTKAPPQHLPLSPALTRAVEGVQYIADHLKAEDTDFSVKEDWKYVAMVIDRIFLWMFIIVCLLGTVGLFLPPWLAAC
Text: as §1

[4] = molecular target: T4, α2β4 nAChR subtype (Rattus norvegicus, UniProt P12389+P12392)
T4 construct: expressed in transfected cells
T4 sequence (P12389 28-511): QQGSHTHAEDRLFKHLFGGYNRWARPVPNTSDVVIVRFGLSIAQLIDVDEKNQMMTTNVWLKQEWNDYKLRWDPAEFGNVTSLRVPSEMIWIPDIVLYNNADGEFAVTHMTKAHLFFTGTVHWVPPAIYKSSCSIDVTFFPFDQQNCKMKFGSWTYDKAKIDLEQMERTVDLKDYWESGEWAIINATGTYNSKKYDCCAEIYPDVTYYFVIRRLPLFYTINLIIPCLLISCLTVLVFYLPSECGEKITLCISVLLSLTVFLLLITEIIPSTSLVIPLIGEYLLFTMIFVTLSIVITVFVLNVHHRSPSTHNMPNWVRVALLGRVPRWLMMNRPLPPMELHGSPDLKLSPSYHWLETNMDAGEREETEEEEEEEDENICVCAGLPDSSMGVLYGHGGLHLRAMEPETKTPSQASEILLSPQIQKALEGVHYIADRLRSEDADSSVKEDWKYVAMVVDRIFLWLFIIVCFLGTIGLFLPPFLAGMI
T4 sequence (P12392 21-495): as the sequence (P12392 21-495) above
Text: as §1

[5] = molecular target: T5, α4β4 nAChR subtype (Rattus norvegicus, UniProt P09483+P12392)
T5 construct: expressed in transfected cells
T5 sequence (P12392 21-495): as above
T5 sequence (P09483 31-630): as the sequence (P09483 31-630) above
Text: as §1

[6] = molecular target: T6, α2β2 nAChR subtype (Rattus norvegicus, UniProt P12389+P12390)
T6 construct: expressed in transfected cells
T6 sequence (P12390 25-500): as the sequence (P12390 25-500) above
T6 sequence (P12389 28-511): as the sequence (P12389 28-511) above
Text: as §1

[7] = molecular target: T7, α3β2 nAChR subtype (Rattus norvegicus, UniProt P04757+P12390)
T7 construct: expressed in transfected cells
T7 sequence (P12390 25-500): as the sequence (P12390 25-500) above
T7 sequence (P04757 26-499): as the sequence (P04757 26-499) above
Text: as §1

[8] = Ki α4β2*, Table 5, *Rat forebrain, mainly α4β2
[9] = Ki α3β4, Table 5, rat nAChR subtypes
[10] = Table 3, mean ± SEM of 3 (nicotine, 1: 3 to 6) independent measurements, read-out: Ki α3β4
[11] = Ki α4β2, Table 5, rat nAChR subtypes
[12] = Table 3, mean ± SEM of 3 (nicotine, 1: 3 to 6) independent measurements, read-out: Ki α4β2
[13] = Ki α2β4, Table 5, rat nAChR subtypes
[14] = Table 3, mean ± SEM of 3 (nicotine, 1: 3 to 6) independent measurements, read-out: Ki α2β4
[15] = Ki α4β4, Table 5, rat nAChR subtypes
[16] = Table 3, mean ± SEM of 3 (nicotine, 1: 3 to 6) independent measurements, read-out: Ki α4β4
[17] = Ki α2β2, Table 5, rat nAChR subtypes
[18] = Table 3, mean ± SEM of 3 (nicotine, 1: 3 to 6) independent measurements, read-out: Ki α2β2
[19] = Ki α3β2, Table 5, rat nAChR subtypes
[20] = Table 3, mean ± SEM of 3 (nicotine, 1: 3 to 6) independent measurements, read-out: Ki α3β2
[21] = Table 5, rat nAChR subtypes, read-out: Ki α3β4
[22] = Table 5, rat nAChR subtypes, read-out: Ki α2β4
[23] = Table 5, rat nAChR subtypes, read-out: Ki α2β2

T1 sequence (P09483 31-630): as the sequence (P09483 31-630) above
T1 sequence (P12390 25-500): as the sequence (P12390 25-500) above

Compound: CN1CCC[C@H]1COc1cncc(C#CCO)c1 [Ligand 14]
- Ki ([1]; Ki Rat forebrain, Table 1, mean of 3 (1, 2: 3 to 6) independent measurements): 0.00316 µM
- Ki ([2]; Ki α3β4, Table 1, mean of 3 (1, 2: 3 to 6) independent measurements): 18.2 µM
- Ki ([3]; Ki α4β2, Table 1, mean of 3 (1, 2: 3 to 6) independent measurements): 0.000954 µM
- Ki ([4]; Ki α2β4, Table 1, mean of 3 (1, 2: 3 to 6) independent measurements): 1.88 µM
- Ki ([5]; Ki α4β4, Table 1, mean of 3 (1, 2: 3 to 6) independent measurements): 1.69 µM
- Ki ([6]; Ki α2β2, Table 1, mean of 3 (1, 2: 3 to 6) independent measurements): 0.00243 µM
- Ki ([7]; Ki α3β2, Table 1, mean of 3 (1, 2: 3 to 6) independent measurements): 0.00764 µM

Compound: Clc1cc2c(cn1)C1(CC2)CC2CCC1N2 (centres unmarked) [Ligand 58a]
- Ki [1, 8]: 54.4 µM
- Ki [2, 9]: 36.7 µM
- Ki [2, 10]: 14.9 µM
- Ki [3, 11]: 28 µM
- Ki [3, 12]: 29.2 µM
- Ki [4, 13]: 11.6 µM
- Ki [4, 14]: 10.7 µM
- Ki [5, 15]: 10.2 µM
- Ki [5, 16]: 10.5 µM
- Ki [6, 17]: 12.8 µM
- Ki [6, 18]: 12.6 µM
- Ki [7, 19]: 16 µM
- Ki [7, 20]: 19.7 µM

Compound: O[C@H]1C[C@H]2N[C@@H]1C[C@@H]2c1ccc(Cl)nc1 (relative stereo) [Ligand 6, 2-exo-(2-Chloro-5-pyridyl)-5-exo-hydroxyl-7-azabicyclo[2.2.1]heptane]
- Ki [1, 8]: 0.069 µM
- Ki [2, 9]: 0.224 µM
- Ki [4, 13]: 0.0675 µM
- Ki [5, 15]: 0.0727 µM
- Ki [6, 17]: 0.0169 µM
- Ki [7, 19]: 0.0193 µM

Compound: O=C1CC2NC1CC2c1ccc(Cl)nc1 (stereo not drawn) [Ligand 4, 2-exo-(2-Chloro-5-pyridyl)-7-azabicyclo[2.2.1]heptan-5-one]
- Ki [1, 8]: 4.57 µM
- Ki [2, 9]: 4.43 µM
- Ki [3, 11]: 7.08 µM
- Ki [4, 13]: 1.14 µM
- Ki [5, 15]: 3.24 µM
- Ki [6, 17]: 0.642 µM
- Ki [7, 19]: 1.89 µM

Compound: CN1CCC[C@H]1COc1cncc(C#CCCCCO)c1 [Ligand 16]
- Ki [1]: 0.00356 µM
- Ki [2]: 40.2 µM
- Ki [3]: 0.00081 µM
- Ki [4]: 3.23 µM
- Ki [5]: 1.27 µM
- Ki [6]: 0.00287 µM
- Ki [7]: 0.0126 µM

Compound: OC1C2CCC(N2)C1c1ccc(Cl)nc1 (single isomer, unassigned) [Ligand 3, 2-exo-(2-Chloro-5-pyridyl)-3-endo-hydroxyl-7-azabicyclo[2.2.1]heptane]
- Ki [1, 8]: 0.00479 µM
- Ki [2, 9]: 0.0391 µM
- Ki [3, 11]: 0.00292 µM
- Ki [4, 13]: 0.0153 µM
- Ki [5, 15]: 0.0112 µM
- Ki [6, 17]: 0.00249 µM
- Ki [7, 19]: 0.00731 µM

Compound: Clc1ccc2c(n1)CCC1C3CCC(N3)C21 (centres unmarked) [Ligand 37b]
- Ki [1, 8]: 0.576 µM
- Ki [2, 10]: 0.201 µM
- Ki [2, 21]: 0.201 µM
- Ki [3, 11]: 0.21 µM
- Ki [3, 12]: 0.295 µM
- Ki [4, 14]: 0.032 µM
- Ki [4, 22]: 0.0322 µM
- Ki [5, 15]: 0.0398 µM
- Ki [5, 16]: 0.041 µM
- Ki [6, 18]: 0.059 µM
- Ki [6, 23]: 0.0594 µM
- Ki [7, 19]: 0.541 µM
- Ki [7, 20]: 0.53 µM

Compound: OC1CC2CC(c3ccc(Cl)nc3)C1N2 (racemic) [Ligand 9]
- Ki ([2]; read-out: Ki α3β4): 0.0273 µM
- Ki ([3]; read-out: Ki α4β2): 0.00092 µM
- Ki ([4]; read-out: Ki α2β4): 0.00585 µM
- Ki ([5]; read-out: Ki α4β4): 0.00557 µM
- Ki ([6]; read-out: Ki α2β2): 0.00153 µM
- Ki ([7]; read-out: Ki α3β2): 0.00136 µM

Compound: O[C@H]1[C@H](c2ccc(Cl)nc2)[C@H]2CC[C@@H]1N2 (relative stereo) [Ligand 3]
- Ki ([2]; Ki α3β4): 0.0391 µM
- Ki ([3]; Ki α4β2): 0.0029 µM
- Ki ([4]; Ki α2β4): 0.0153 µM
- Ki ([5]; Ki α4β4): 0.0112 µM
- Ki ([6]; Ki α2β2): 0.0025 µM
- Ki ([7]; Ki α3β2): 0.0073 µM

Compound: Hexane-1,3-N,N′-bisepibatidine [Ligand 59c]
- Ki ([1]; Table 5, *Rat forebrain, mainly α4β2, read-out: Ki α4β2*): 0.0142 µM
- Ki [2, 21]: 0.0647 µM
- Ki ([3]; Table 5, rat nAChR subtypes, read-out: Ki α4β2): 0.0072 µM
- Ki [4, 22]: 0.0374 µM
- Ki ([5]; Table 5, rat nAChR subtypes, read-out: Ki α4β4): 0.0319 µM
- Ki [6, 23]: 0.00412 µM
- Ki ([7]; Table 5, rat nAChR subtypes, read-out: Ki α3β2): 0.00661 µM

Compound: O=c1cccc2n1C[C@H]1C[C@@H]2CN(CCCN2C[C@@H]3C[C@H](C2)c2cccc(=O)n2C3)C1 [ZW-18]
- Ki [1]: 0.936 µM
- Ki [2]: > 10 µM
- Ki [3]: 0.468 µM
- Ki [4]: 3.48 µM
- Ki [5]: 0.746 µM
- Ki [6]: 0.318 µM
- Ki [7]: > 1 µM

Source: patent US8030300B2, “Ligands for nicotinic acetylcholine receptors, and methods of making and using them” (priority 2003, dated 2011)
